Measured values taken from patent US9532970B2, “Compositions for anti-inflammatory, antioxidant effects and improved respiratory function by specific histone deacetylase inhibition” (priority 2014, dated 2017).
Where two headings read alike, the source gives them in different places.

Key:
HDAC-3 [1] = biological target: T1, HDAC-3 (Homo sapiens, UniProt O15379); experiment: biochemical
HDAC-7 = HDAC-7 (Homo sapiens, UniProt Q8WUI4); experiment: Binding to metal dependent histone deacetylase enzymes (epigenetic assay services)
HDAC-7, sequence (Q8WUI4 whole entry): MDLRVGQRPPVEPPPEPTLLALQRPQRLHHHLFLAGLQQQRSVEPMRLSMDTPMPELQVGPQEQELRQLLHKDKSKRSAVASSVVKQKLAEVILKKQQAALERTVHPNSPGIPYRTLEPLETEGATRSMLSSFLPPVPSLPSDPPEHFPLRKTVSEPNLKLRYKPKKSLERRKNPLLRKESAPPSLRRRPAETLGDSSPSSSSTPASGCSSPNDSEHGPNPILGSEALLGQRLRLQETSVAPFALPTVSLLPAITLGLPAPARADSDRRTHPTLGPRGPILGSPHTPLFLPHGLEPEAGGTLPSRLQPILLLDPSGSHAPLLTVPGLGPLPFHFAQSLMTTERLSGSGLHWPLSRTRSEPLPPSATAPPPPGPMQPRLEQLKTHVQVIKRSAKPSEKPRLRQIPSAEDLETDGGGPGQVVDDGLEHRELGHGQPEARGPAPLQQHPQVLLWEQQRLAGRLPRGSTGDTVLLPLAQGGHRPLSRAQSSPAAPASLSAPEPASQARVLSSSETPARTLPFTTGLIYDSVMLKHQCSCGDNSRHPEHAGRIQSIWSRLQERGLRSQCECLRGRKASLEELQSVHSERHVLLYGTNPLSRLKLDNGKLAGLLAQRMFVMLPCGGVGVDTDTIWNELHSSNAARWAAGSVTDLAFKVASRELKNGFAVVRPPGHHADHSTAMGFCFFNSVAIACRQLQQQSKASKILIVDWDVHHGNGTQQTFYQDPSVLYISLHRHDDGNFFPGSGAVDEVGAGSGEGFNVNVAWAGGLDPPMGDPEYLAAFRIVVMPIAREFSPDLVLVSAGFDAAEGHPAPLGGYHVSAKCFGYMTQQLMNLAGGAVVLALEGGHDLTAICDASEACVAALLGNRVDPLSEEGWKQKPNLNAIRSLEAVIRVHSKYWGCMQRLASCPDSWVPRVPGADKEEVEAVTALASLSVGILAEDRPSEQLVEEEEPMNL

[2] = tested on: peripheral blood mononuclear cells (PBMC)
HDAC8 = HDAC8 (Homo sapiens, UniProt Q9BY41)
HDAC8, sequence (Q9BY41 whole entry, species assumed): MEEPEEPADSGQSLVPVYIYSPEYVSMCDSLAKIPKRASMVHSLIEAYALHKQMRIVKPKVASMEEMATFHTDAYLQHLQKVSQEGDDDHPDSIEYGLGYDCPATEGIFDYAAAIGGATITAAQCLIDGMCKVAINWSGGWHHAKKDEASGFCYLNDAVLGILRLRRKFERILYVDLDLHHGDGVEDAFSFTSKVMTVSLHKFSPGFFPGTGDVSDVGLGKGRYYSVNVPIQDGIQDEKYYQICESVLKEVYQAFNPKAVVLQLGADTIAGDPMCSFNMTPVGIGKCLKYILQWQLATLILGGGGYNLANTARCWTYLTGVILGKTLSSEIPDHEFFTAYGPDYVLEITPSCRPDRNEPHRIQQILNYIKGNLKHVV

Horse PBMC = settings: for Log2 Fold Change: LSF vs control
[3] = tested on: ovalbumin (OVA)-induced AAD
HDAC-6 = biological target: T2, HDAC-6 (Homo sapiens, UniProt Q9UBN7); experiment: biochemical
T2 sequence (Q9UBN7 1-1215): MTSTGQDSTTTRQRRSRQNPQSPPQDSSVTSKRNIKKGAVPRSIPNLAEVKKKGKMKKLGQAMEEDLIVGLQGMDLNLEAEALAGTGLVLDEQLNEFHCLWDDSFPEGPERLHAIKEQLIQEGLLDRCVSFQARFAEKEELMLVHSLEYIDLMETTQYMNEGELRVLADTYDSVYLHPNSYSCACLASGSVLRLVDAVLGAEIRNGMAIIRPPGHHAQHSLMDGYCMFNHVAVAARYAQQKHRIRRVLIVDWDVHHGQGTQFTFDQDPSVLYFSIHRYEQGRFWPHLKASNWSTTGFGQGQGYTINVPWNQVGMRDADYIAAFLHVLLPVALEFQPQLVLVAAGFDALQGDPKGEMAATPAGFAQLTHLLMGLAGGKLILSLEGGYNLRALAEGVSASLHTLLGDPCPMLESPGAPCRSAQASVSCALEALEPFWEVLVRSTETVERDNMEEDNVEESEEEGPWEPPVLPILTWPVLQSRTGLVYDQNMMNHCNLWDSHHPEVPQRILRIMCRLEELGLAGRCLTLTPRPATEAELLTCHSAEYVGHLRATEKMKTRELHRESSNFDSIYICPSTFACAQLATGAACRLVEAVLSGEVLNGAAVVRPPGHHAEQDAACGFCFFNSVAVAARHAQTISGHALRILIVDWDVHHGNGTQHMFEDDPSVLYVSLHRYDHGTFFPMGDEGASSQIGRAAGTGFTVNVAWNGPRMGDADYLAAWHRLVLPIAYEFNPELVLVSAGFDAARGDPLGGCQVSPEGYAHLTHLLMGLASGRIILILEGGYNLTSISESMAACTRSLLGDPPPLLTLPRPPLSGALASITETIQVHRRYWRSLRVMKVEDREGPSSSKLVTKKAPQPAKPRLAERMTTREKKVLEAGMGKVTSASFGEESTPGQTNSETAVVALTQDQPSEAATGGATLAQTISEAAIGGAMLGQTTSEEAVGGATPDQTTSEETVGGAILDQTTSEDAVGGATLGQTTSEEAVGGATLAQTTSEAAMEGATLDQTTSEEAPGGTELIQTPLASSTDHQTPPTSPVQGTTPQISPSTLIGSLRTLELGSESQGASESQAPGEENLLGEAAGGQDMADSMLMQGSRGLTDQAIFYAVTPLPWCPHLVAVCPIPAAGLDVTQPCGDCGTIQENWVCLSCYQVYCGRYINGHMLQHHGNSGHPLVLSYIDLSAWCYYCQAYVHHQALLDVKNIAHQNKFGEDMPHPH

HDAC-3 [4] = biological target: T1, HDAC-3
[5] = tested on: naphthalene-induced airway epithelial damage; settings: 5 mg/kg ip
[6] = more subtle than Trichostatin A
[7] = three control vs three LSF treated samples
[8] = 5 mg/kg intraperitoneally following each OVA nebulization, compared to ovalbumin-sensitized mice

T1 sequence (O15379 whole entry, species assumed): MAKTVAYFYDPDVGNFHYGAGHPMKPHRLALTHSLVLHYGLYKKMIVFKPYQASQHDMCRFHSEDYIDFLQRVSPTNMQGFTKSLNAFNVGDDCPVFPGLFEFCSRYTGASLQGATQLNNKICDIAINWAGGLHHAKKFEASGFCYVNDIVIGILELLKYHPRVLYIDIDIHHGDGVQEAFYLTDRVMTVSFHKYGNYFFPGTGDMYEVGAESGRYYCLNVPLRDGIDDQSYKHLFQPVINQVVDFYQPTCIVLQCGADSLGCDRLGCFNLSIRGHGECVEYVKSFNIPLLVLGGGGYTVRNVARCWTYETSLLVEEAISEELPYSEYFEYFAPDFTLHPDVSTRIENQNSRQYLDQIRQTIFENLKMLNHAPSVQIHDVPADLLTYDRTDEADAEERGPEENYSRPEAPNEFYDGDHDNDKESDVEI
T1 sequence (Q9Y618 395-489 partner limits assumed, species assumed): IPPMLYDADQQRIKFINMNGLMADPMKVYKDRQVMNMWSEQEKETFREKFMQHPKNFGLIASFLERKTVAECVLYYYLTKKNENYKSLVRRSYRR

C[S@@+]([O-])CCCCN=C=S [LSF, (R)-1-Isothiocyanato-4-(methylsulfinyl)butane]
IC50 (HDAC-3 [1]): 20.5 mM
HILLSLOPE (HDAC-7; HDAC-7): −0.41
IC50 (HDAC-7; HDAC-7): 5.81 mM
binding to HDAC 7 (in words) (HDAC-7; [6]): specific binding
reduction in chemokines and cytokines relative to Trichostatin A (TSA), SAHA and sodium butyrate (NaB) ([2]; 1 μM TSA, 10 μM SAHA, 10 mM NaB, 15 or 30 μM LSF): more pronounced effects
levels of TNF-α, IL-1β, IL-6, IL-8, MIP-1β and IP-10 in supernatants ([2]; 15 μM LSF or 30 μM LSF, FIG. 3): reduction
binding to HDAC8 relative to the other HDACs (HDAC8; FIG. 1): most pronounced
HILLSLOPE (HDAC8; HDAC-8): −0.88
binding to HDAC 8 (in words) (HDAC8; [6]): specific binding
Log2 Fold Change (Horse PBMC; gene ABCA1): −4.37
Log2 Fold Change (Horse PBMC; gene APOBEC3Z1B): −3.67
Log2 Fold Change (Horse PBMC; gene ASPH): 1.93
Log2 Fold Change (Horse PBMC; gene C2): −2.13
Log2 Fold Change (Horse PBMC; gene CD180): −2.97
Log2 Fold Change (Horse PBMC; gene CMKLR1): −3.79
Log2 Fold Change (Horse PBMC; gene CSF3R): −3.76
Log2 Fold Change (Horse PBMC; gene CXCL9): −2.55
Log2 Fold Change (Horse PBMC; gene CYP1B1): −3.83
Log2 Fold Change (Horse PBMC; gene DENND2A): 3.67
Log2 Fold Change (Horse PBMC; gene FRMPD4): −3.80
Log2 Fold Change (Horse PBMC; gene FTL): 1.51
Log2 Fold Change (Horse PBMC; gene GSAP): 2.00
Log2 Fold Change (Horse PBMC; gene IL8): 3.54
Log2 Fold Change (Horse PBMC; gene KCNJ2): 2.06
Log2 Fold Change (Horse PBMC; gene MAFB): −2.66
Log2 Fold Change (Horse PBMC; gene ME1): 1.47
Log2 Fold Change (Horse PBMC; gene MN-SOD): 1.93
Log2 Fold Change (Horse PBMC; gene NR1H3): −2.56
Log2 Fold Change (Horse PBMC; gene OSGIN2): 1.88
Log2 Fold Change (Horse PBMC; gene PLEKHA4): −3.60
Log2 Fold Change (Horse PBMC; gene PTPN12): 1.43
Log2 Fold Change (Horse PBMC; gene RIPK2): 2.01
Log2 Fold Change (Horse PBMC; gene RNASE6): −2.45
Log2 Fold Change (Horse PBMC; gene SERPINB2): −4.65
Log2 Fold Change (Horse PBMC; gene SLAMF8): −2.75
Log2 Fold Change (Horse PBMC; gene SLC7A8): −3.35
Log2 Fold Change (Horse PBMC; gene SLC7A11): 2.34
Log2 Fold Change (Horse PBMC; gene SLC37A2): −2.72
Log2 Fold Change (Horse PBMC; gene SORCS1): −2.71
Log2 Fold Change (Horse PBMC; gene STAC2): 3.38
Log2 Fold Change (Horse PBMC; gene STXBP5): 1.57
Log2 Fold Change (Horse PBMC; gene TGM2): −3.99
Log2 Fold Change (Horse PBMC; gene TNFSF15): 2.40
Log2 Fold Change (Horse PBMC; gene TNS3): −3.09
Log2 Fold Change (Horse PBMC; gene TUBA4A): 1.30
Log2 Fold Change (Horse PBMC; gene TXN): 1.87
Log2 Fold Change (Horse PBMC; gene TXNRD1): 2.13
Log2 Fold Change (Horse PBMC; gene WDR59): 2.19
Log2 Fold Change (Horse PBMC; gene ZFAND2A): 2.22
differentially expressed genes (number) (Horse PBMC; [7]): 5951
down-regulated genes (number) (Horse PBMC; [7]): 3012
up-regulated genes (number) (Horse PBMC; [7]): 2939
airway wall thickness [3, 8]: reductions
goblet cell hyperplasia [3, 8]: reductions
inflammation [3, 8]: reductions
Annexin V staining (apoptosis) in lung tissue ([3]; OVA-LSF 5 mg/kg, strong staining in OVA-VEH): Weak
IC50 (HDAC-6): 1.02 mM
HILLSLOPE (HDAC-3 [4]; HDAC-3): −0.20
binding to HDAC 3 (in words) (HDAC-3 [4]; [6]): specific binding
epithelial denudation ([5]; 24 hours post-naphthalene, level analogous to dexamethasone 1 mg/kg): reduces
lamina reticularis thickness ([5]; 72 hours post-naphthalene, efficacy similar to dexamethasone): reduces
